Earlier results on one molecule are cited in patent US20200206223A1, “LIQUID DOSAGE FORMS OF IMATINIB” (FTF PHARMA PRIVATE LIMITED, priority 2017, published 2020).

Take `Cc1ccc(NC(=O)c2ccc(CN3CCNCC3)cc2)cc1Nc1nccc(-c2cccnc2)n1` [N-desmethyl derivative]: under “main circulating active metabolite”, the “Share of the AUC for Imatinib mesylate” value was “about 15%”. For the same molecule, for the setting “orally administered imatinib mesylate”, the Elimination half-life is roughly 40 h.
